The experiment concerns the target T1, leukotriene induced contraction of guinea pig tracheal tissues (Cavia porcellus, UniProt Q2NNR5).
T1 sequence (Q2NNR5 1-340): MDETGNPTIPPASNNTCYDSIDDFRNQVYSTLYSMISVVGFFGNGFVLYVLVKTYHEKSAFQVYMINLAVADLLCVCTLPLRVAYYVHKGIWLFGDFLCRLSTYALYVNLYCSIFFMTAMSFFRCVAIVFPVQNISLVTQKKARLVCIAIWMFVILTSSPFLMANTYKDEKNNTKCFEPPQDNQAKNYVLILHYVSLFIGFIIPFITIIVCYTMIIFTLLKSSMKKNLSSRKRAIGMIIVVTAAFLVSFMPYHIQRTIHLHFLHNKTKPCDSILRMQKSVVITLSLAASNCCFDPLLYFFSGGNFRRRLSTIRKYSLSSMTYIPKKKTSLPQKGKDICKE
Briefly: Inhibition of leukotriene (LTD4) induced contraction of guinea pig tracheal spiral strips in vitro. Conditions: LTD4 concentration-response curves on guinea pig tracheal strips, 30 minutes pretreatment with test compound; current average where tested more than once; read-out: In Vitro -Log K8 (converted).

Structures can show the parent of a compound that is named as a salt.

`CCCCCCCCCCCCc1ccccc1C(Sc1nnnn1CC(=O)O)C(=O)O` (stereo not drawn) [2(2-Dodecylphenyl)-2[(1-carboxymethyl-5-tetrazolyl)thio]acetic acid]: the Kd was 794 nM.
Next, `CCCCCCCCCCCCc1ccccc1C(Sc1nnnn1C)C(=O)O` (stereo not drawn) [5-tetrazolyl, 0,1-CH3, C12 H25, CO2 H, 2-(2-Dodecylphenyl)-2[(1-methyl-5-tetrazolyl)thio]acetic acid]: 1580 nM; `O=C(O)CCCn1nnnc1SC(C(=O)O)c1ccccc1CCCCCCCCc1ccccc1` (stereo not drawn) [dipotassium salt hydrate]: 1000 nM.

The values above are taken from patent publication US5143931A, “Leukotriene antagonists containing tetrazolyl groups” (SmithKline Beecham Corporation, priority 1990, dated 1992).
